The results in this text go back to patent US10660836B2, “Hydroxy functionalized solvent based skin benefit composition” (Conopco, Inc., priority 2015, dated 2020).

A short description of this data set: Transparency (no crystallization or gelation) of 12-hydroxystearic acid compositions after manufacturing, visual inspection. Type of data set: physicochemical. Details: key: C: a substantially transparent or transparent composition for at least three (3) months after manufacturing; X: an opaque (non-transparent, non-translucent) composition inconsistent with the claimed compositions of this invention and where benefit agent crystallization or composition gelation is almost immediately observed. Particulars: SBA = 12-hydroxystearic acid. An excerpt:
Cosmetic composition is meant to mean a leave-on or wash-off composition, preferably leave-on, for topical application to mammals, especially humans. Such a composition can include tonics, lotions, personal washes, serums, spot correctors, compositions for facial masks or wipes, make-up removers, patches, scrubs or the like. Substantially transparent as used herein, means allowing light to pass but diffusing the light so that items on the opposite side of light entry are not clearly visible. Substantially transparent is synonymous with translucent. Transparent, as used herein, means capable of transmitting light where objects opposite the point of entry of light are seen clearly upon a visable inspection (i.e., 2.5 cm of sample placed 5 cm over an object and viewed from 25 cm away from viewer's eyes). Flowable, as used herein, means having a viscosity from 0 to 8,000 cps, and preferably, from 10 to 4,000 cps, and most preferably, from 500 to 2,000 cps, including all ranges subsumed therein (viscosity measured on a Brookfield Viscometer, 24° C., 20 RPM, Spindle RV2). Free of crystallization and gelation as used herein means remaining at least substantially transparent (preferably transparent) at ambient temperature for at least three (3) months. Use of substantially transparent, transparent and translucent herein is based on the mixture of hydroxy functionalized solvent (with or without miscible co-solvent) and 12-hydroxystearic acid. It is not to say the mixture cannot, for example, comprise an optional opacifier. Hydroxy group density (“HD”) means the molecular weight of total solvent hydroxy group/the molecular weight of the solvent where solvent hydroxy group can include the hydroxy group on a carboxylic acid group. Methanol, for example, has an HD of 0.53, 17 g/mol/32 g/mol. Regarding optional additives, they may be used according to their solubility where those that are not water soluble may be selected for use in the composition substantially free of water as described herein and those which are water soluble may be used in the aforementioned optional but separate and distinct phase. Miscible/Soluble, as used herein, means ability to mix/dissolve homogeneously at 70 to 85° C. and remain homogeneously dissolved or mixed upon cooling. Comprising, as used herein, is meant to include consisting essentially of and consisting of. For the avoidance of doubt, therefore, the composition of this invention may consist essentially of or consist of 12-hydroxystearic acid and hydroxy functionalized solvent. Anhydrous as used herein means a composition substantially free of water whereby the composition is less than 2% by weight water, and preferably, less than 1% by weight water based on total weight of the composition comprising 12-hydroxystearic acid and hydroxy functionalized solvent. Anhydrous also includes free of water (i.e., no water) within the composition comprising 12-hydroxystearic and hydroxy fuctionalized solvent. Double phase product includes a two (2) portion product that may be separately packaged or preferably a biphasic product (i.e., distinct immiscible portions). Skin benefit agent means an agent in addition to hydroxyl functionalized solvent and 12-hydroxystearic acid that provides benefit to skin. The skin benefit agent used in the anhydrous composition of the invention that comprises 12-hydroxystearic acid is preferably soluble or miscible in the same. To the extent optional water miscible/soluble actives or ingredients are used, they will preferably be provided, as later described, in a double phase product with the anhydrous composition of this invention, the double phase product having a distinct phase often being a water phase (including emulsions, solutions and dispersions), water containing concentrate or water soluble solid, particulate or powder. Water phase, as used herein, includes a composition having 2% or more water, and preferably, from 10% to 98% by weight water based on total weight of the water phase. […]

In the case of `CC(C)CCCCCCCCCCCCCCC(=O)O` [Isostearic Acid], the Transparency of composition entry reads like this: (1% SBA/99% Solvent) “C (a substantially transparent or transparent composition for at least three (3) months after manufacturing)”; (3% SBA/97% Solvent) “C (a substantially transparent or transparent composition for at least three (3) months after manufacturing)”; (5% SBA/95% Solvent) “X”; (10% SBA/90% Solvent) “X”; (15% SBA/85% Solvent) “X”; (20% SBA/80% Solvent) “X”. Moreover, the Transparency of composition result (25% SBA/75% Solvent) was “X”.

As to `OCCOc1ccccc1` [Pehnoxyethanol], the Transparency of composition result (1% SBA/99% Solvent) is recorded as “C (a substantially transparent or transparent composition for at least three (3) months after manufacturing)”; the Transparency of composition entry (3% SBA/97% Solvent) is “C (a substantially transparent or transparent composition for at least three (3) months after manufacturing)”; the Transparency of composition entry (5% SBA/95% Solvent) was “C (a substantially transparent or transparent composition for at least three (3) months after manufacturing)”; the Transparency of composition entry (10% SBA/90% Solvent) was “X”; the Transparency of composition entry (15% SBA/85% Solvent) was “X”; the Transparency of composition entry (20% SBA/80% Solvent) is on record as “X”. Moreover, the Transparency of composition result (25% SBA/75% Solvent) is reported as “X”.

As for `CO` [Methanol], the Transparency of composition entry (1% SBA/99% Solvent) is “C (a substantially transparent or transparent composition for at least three (3) months after manufacturing)”; the Transparency of composition result (3% SBA/97% Solvent) was “C (a substantially transparent or transparent composition for at least three (3) months after manufacturing)”; the Transparency of composition result (5% SBA/95% Solvent) is reported as “C (a substantially transparent or transparent composition for at least three (3) months after manufacturing)”; the Transparency of composition entry (10% SBA/90% Solvent) is given as “C (a substantially transparent or transparent composition for at least three (3) months after manufacturing)”; the Transparency of composition entry (15% SBA/85% Solvent) was “C (a substantially transparent or transparent composition for at least three (3) months after manufacturing)”; the Transparency of composition entry (20% SBA/80% Solvent) is “C (a substantially transparent or transparent composition for at least three (3) months after manufacturing)”. Further, the Transparency of composition result (25% SBA/75% Solvent) is reported as “X”.

As for `OCc1ccccc1` [Benzyl Alcohol], the Transparency of composition result (1% SBA/99% Solvent) is “C (a substantially transparent or transparent composition for at least three (3) months after manufacturing)”; the Transparency of composition entry (3% SBA/97% Solvent) is on record as “C (a substantially transparent or transparent composition for at least three (3) months after manufacturing)”; the Transparency of composition result (5% SBA/95% Solvent) is “C (a substantially transparent or transparent composition for at least three (3) months after manufacturing)”; the Transparency of composition result (10% SBA/90% Solvent) was “X”; the Transparency of composition result (15% SBA/85% Solvent) is reported as “X”; the Transparency of composition entry (20% SBA/80% Solvent) is listed as “X”. For the same compound, where the note is “25% SBA/75% Solvent”, the Transparency of composition entry was “X”.

As to `OCCCCO` [Butylene Glycol], the Transparency of composition result (1% SBA/99% Solvent) is “C (a substantially transparent or transparent composition for at least three (3) months after manufacturing)”; the Transparency of composition result (3% SBA/97% Solvent) is recorded as “X”; the Transparency of composition result (5% SBA/95% Solvent) is on record as “X”; the Transparency of composition entry (10% SBA/90% Solvent) was “X”; the Transparency of composition entry (15% SBA/85% Solvent) was “X”; the Transparency of composition result (20% SBA/80% Solvent) was “X”. Further, the Transparency of composition entry (25% SBA/75% Solvent) is recorded as “X”.

Consider `CCCCCCCCCCC(CO)CCCCCCCC` (stereo not drawn) [Octyldodecanol], for which the Transparency of composition entry (1% SBA/99% Solvent) is recorded as “C (a substantially transparent or transparent composition for at least three (3) months after manufacturing)”; the Transparency of composition entry (3% SBA/97% Solvent) was “C (a substantially transparent or transparent composition for at least three (3) months after manufacturing)”; the Transparency of composition entry (5% SBA/95% Solvent) was “X”; the Transparency of composition entry (10% SBA/90% Solvent) is recorded as “X”; the Transparency of composition entry (15% SBA/85% Solvent) was “X”; the Transparency of composition result (20% SBA/80% Solvent) is on record as “X”. Also, the Transparency of composition entry (25% SBA/75% Solvent) is given as “X”.

Take `CC(O)CO` (stereo not drawn) [Propylene Glycol]: the Transparency of composition entry was “C (a substantially transparent or transparent composition for at least three (3) months after manufacturing)” (1% SBA/99% Solvent); “X” (3% SBA/97% Solvent); “X” (5% SBA/95% Solvent); “X” (10% SBA/90% Solvent); “X” (15% SBA/85% Solvent); “X” (20% SBA/80% Solvent). Also, the Transparency of composition entry (25% SBA/75% Solvent) was “X”.

Take `CC(C)CCCCCCCCCCCCCCCO` [Isostearyl Alcohol]: the Transparency of composition result was “C (a substantially transparent or transparent composition for at least three (3) months after manufacturing)” (1% SBA/99% Solvent); “C (a substantially transparent or transparent composition for at least three (3) months after manufacturing)” (3% SBA/97% Solvent); “X” (5% SBA/95% Solvent); “X” (10% SBA/90% Solvent); “X” (15% SBA/85% Solvent); “X” (20% SBA/80% Solvent). Also, under “25% SBA/75% Solvent”, the Transparency of composition entry is recorded as “X”.

For the compound Ethylhexyl Hydroxystearate, the Transparency of composition result reads like this: (1% SBA/99% Solvent) “C (a substantially transparent or transparent composition for at least three (3) months after manufacturing)”; (3% SBA/97% Solvent) “X”; (5% SBA/95% Solvent) “X”; (10% SBA/90% Solvent) “X”; (15% SBA/85% Solvent) “X”; (20% SBA/80% Solvent) “X”. For the setting “25% SBA/75% Solvent”, the Transparency of composition result is “X”.

Turning to `CCO` [Ethanol], the Transparency of composition result is “C (a substantially transparent or transparent composition for at least three (3) months after manufacturing)” (1% SBA/99% Solvent); “C (a substantially transparent or transparent composition for at least three (3) months after manufacturing)” (3% SBA/97% Solvent); “C (a substantially transparent or transparent composition for at least three (3) months after manufacturing)” (5% SBA/95% Solvent); “C (a substantially transparent or transparent composition for at least three (3) months after manufacturing)” (10% SBA/90% Solvent); “C (a substantially transparent or transparent composition for at least three (3) months after manufacturing)” (15% SBA/85% Solvent); “X” (20% SBA/80% Solvent). Also, under “25% SBA/75% Solvent”, the Transparency of composition entry is reported as “X”.

Conjugated Linoleic Acid: the Transparency of composition result is recorded as “C (a substantially transparent or transparent composition for at least three (3) months after manufacturing)” (1% SBA/99% Solvent); “C (a substantially transparent or transparent composition for at least three (3) months after manufacturing)” (3% SBA/97% Solvent); “X” (5% SBA/95% Solvent); “X” (10% SBA/90% Solvent); “X” (15% SBA/85% Solvent); “X” (20% SBA/80% Solvent). For the same compound, the Transparency of composition result (25% SBA/75% Solvent) is “X”.

Regarding `CCOCCOCCO` [2-(2-Ethoxyethoxy)ethanol], the Transparency of composition entry is given as “C (a substantially transparent or transparent composition for at least three (3) months after manufacturing)” (1% SBA/99% Solvent); “C (a substantially transparent or transparent composition for at least three (3) months after manufacturing)” (3% SBA/97% Solvent); “C (a substantially transparent or transparent composition for at least three (3) months after manufacturing)” (5% SBA/95% Solvent); “X” (10% SBA/90% Solvent); “X” (15% SBA/85% Solvent); “X” (20% SBA/80% Solvent). For the same compound, the Transparency of composition result (25% SBA/75% Solvent) is given as “X”.
